Experimental data taken from BindingDB's records for doi:10.1111/j.1747-0285.2011.01215.x (Yeditepe University, 2011).

Target: Sigma non-opioid intracellular receptor 1 (Cavia porcellus, UniProt Q60492)
Assay: Sigma 1 Assay
Settings: pH 7.4; 37 °C
Method: The test was performed with the radioligand [3H]-(+)-pentazocine (42.5 Ci/mmol) from Perkin Elmer.

Sigma non-opioid intracellular receptor 1, sequence (Q60492 whole entry): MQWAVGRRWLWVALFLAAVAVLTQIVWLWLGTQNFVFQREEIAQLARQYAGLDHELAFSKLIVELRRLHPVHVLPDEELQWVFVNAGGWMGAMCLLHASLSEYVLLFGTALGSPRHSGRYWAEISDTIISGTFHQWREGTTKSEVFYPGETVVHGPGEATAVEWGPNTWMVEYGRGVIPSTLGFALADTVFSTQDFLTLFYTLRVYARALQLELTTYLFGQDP

SMILES	Ki [nM]
Fc1ccc(N2CCN(Cc3cn(CN4CCN(c5ccc(F)cc5)CC4)c4ccccc34)CC2)cc1 [1,3-di-{[4-(4-fluorophenyl)piperazin1-yl]methyl}-1 H-indole, 2a]	2690
Clc1ccc(CN2CCN(Cc3c[nH]c4ccccc34)CC2)cc1Cl [3-{[4-(substitutedphenyl/benzyl)piperazin1-yl]methyl}-1 H-indole, 1c]	126
Fc1ccc(N2CCN(CCCn3ccc4ccccc43)CC2)cc1 [1-{3-[4-(substitutedphenyl)piperazin1-yl]propyl}-1 H-indole, 4a]	456
Fc1ccc(F)c(CN2CCN(Cc3c[nH]c4ccccc34)CC2)c1 [3-{[4-(substitutedphenyl/benzyl)piperazin1-yl]methyl}-1 H-indole, 1b]	216
Cc1cn(CN2CCN(c3ccc(F)cc3)CC2)c2ccccc12 [1-{[4-(substitutedphenyl/phenylethyl)piperazin1-yl]methyl}-3-methyl-1 H-indole, 3a]	1000
Fc1ccc(N2CCN(Cc3c[nH]c4ccccc34)CC2)cc1 [3-[[4-(4-fluorophenyl)piperazin-1-yl]methyl]-1H-indole]	3640

Next, values leading:

Ki [nM]	SMILES
14.2	Cc1cn(CN2CCN(CCc3ccccc3)CC2)c2ccccc12 [1-{[4-(substitutedphenyl/phenylethyl)piperazin1-yl]methyl}-3-methyl-1 H-indole, 3b]
264	Fc1ccccc1N1CCN(CCCn2ccc3ccccc32)CC1 [1-{3-[4-(substitutedphenyl)piperazin1-yl]propyl}-1 H-indole, 4b]
1490	c1ccc(N2CCN(CCCn3ccc4ccccc43)CC2)cc1 [1-{3-[4-(substitutedphenyl)piperazin1-yl]propyl}-1 H-indole, 4c]
